From patent US7135466B2 (Kirin Beer Kabushiki Kaisha, priority 1999, dated 2006)

Experiments:
c-kit = target: T1, c-kit (Homo sapiens, UniProt P10721); experiment: Inhibitory activity against c-kit autophosphorylation (MO7e cells, h-SCF); assay type: cell-based; details: for IC50: MO7e cells, h-SCF 50 ng/ml, read-out: c-kit IC50; for inhibition at 1 µM: Mo7e, figure in parentheses in −( ), at 1000 nM
T1 construct: MO7e (human megakaryocytic leukemia cell line) which had been arrested for 20 hr; endogenous in cells; host or cells: MO7e human megakaryocytic leukemia cell line
T1 sequence (P10721 26-976): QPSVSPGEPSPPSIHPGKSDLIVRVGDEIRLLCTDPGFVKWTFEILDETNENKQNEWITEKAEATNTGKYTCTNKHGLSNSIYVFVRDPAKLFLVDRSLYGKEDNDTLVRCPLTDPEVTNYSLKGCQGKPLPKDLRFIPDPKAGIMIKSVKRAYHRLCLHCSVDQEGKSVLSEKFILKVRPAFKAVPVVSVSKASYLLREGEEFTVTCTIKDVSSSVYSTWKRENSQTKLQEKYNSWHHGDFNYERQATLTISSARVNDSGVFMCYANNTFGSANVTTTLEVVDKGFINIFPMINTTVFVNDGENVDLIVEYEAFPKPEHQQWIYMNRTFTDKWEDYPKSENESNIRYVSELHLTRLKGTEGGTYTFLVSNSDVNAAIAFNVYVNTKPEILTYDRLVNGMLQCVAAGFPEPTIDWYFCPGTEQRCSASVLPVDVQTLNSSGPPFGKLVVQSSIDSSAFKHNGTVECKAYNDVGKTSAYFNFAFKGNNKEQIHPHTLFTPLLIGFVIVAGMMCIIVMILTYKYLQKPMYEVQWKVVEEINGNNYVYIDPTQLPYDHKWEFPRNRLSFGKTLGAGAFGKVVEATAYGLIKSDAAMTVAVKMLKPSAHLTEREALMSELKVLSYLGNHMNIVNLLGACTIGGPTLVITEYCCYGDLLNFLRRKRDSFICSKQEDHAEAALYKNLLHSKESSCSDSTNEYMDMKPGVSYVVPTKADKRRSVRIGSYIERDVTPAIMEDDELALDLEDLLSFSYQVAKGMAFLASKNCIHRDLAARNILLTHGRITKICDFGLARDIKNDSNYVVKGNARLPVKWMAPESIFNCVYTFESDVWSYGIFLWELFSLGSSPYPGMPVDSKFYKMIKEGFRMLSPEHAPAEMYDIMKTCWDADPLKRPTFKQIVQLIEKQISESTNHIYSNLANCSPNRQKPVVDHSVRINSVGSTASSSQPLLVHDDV
Summary of the method: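 Ligand-induced c-kit tyrosine phosphorylation is measured in MO7e cells that were quiesced 20 hr and preincubated with compound for 1 hr prior to a 5 min pulse of 50 ng/ml human SCF. Phospho-c-kit is detected by anti-phosphotyrosine capture ELISA, A450.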

PDGF-Ra = target: T2, PDGF-Ra (Homo sapiens, UniProt P16234); experiment: Inhibitory activity against PDGF-Ra phosphorylation by PDGF-AA stimulation using G292; assay type: cell-based; details: Pharmacological Test Example 1; > means inhibition at indicated concentration not more than 50%, < and << not less than 50%; read-out: PDGF (E) IC50
T2 construct: host or cells: G-292 human osteosarcoma cells
T2 sequence (P16234 24-1089): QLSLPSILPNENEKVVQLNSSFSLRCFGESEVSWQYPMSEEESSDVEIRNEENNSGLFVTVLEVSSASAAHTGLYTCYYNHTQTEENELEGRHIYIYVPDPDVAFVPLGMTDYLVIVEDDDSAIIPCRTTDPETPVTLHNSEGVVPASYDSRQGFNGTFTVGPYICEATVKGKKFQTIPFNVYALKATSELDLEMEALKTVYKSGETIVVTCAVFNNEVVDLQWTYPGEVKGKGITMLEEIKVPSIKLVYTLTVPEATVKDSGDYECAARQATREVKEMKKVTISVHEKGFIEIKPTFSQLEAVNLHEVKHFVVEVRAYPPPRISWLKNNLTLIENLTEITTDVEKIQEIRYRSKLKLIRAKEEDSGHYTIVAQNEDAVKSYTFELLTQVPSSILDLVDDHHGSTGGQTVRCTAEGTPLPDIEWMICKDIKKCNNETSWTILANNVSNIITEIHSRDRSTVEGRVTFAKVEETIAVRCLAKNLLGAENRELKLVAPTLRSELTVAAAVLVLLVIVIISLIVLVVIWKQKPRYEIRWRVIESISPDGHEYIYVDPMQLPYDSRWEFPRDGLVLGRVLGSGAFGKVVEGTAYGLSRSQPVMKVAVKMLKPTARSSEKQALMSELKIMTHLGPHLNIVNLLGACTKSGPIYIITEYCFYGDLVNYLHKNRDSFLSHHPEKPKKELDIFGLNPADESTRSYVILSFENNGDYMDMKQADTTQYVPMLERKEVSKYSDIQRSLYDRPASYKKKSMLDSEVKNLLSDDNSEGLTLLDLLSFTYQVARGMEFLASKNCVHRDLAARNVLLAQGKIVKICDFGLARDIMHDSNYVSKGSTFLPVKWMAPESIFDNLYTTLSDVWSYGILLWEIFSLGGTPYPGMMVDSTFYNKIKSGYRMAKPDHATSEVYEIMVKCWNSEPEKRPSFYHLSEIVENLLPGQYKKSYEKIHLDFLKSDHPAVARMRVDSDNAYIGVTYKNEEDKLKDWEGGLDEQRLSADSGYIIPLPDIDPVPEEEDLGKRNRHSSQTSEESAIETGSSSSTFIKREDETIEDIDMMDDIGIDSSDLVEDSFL
Summary of the method: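 Read-out: A450 from a sandwich ELISA (PY-20 capture, anti-PDGF-Ra detection, peroxidase colour) of lysates from G-292 cells given compound for 1 hr at 37 °C before a 5 min challenge with PDGF-AA at 50 ng/ml.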

Compound | IC50 (c-kit) [µM] | IC50 (PDGF-Ra) [µM] | inhibition at 1 µM (c-kit) [%]
COc1cc2ncnc(Oc3ccc(NC(=O)OC4CCCCCC4)cc3)c2cc1OC [Example 342, Cycloheptyl N-{4-[(6,7-dimethoxy-4-quinazolinyl)oxy]phenyl}carbamate] | < 0.03 | < 0.01 | –
COc1cc2ncnc(Oc3ccc(NC(=O)OC4CCCCCC4)c(Cl)c3)c2cc1OC [Example 343, Cycloheptyl N-{2-chloro-4-[(6,7-dimethoxy-4-quinazolinyl)oxy]phenyl}carbamate] | 0.232 | < 0.01 | –
COc1cc2nccc(Oc3ccc(NC(=O)OCC4CCCCCC4)cc3)c2cc1OC [Example 348, Cycloheptylmethyl N-{4-[(6,7-dimethoxy-4-quinolyl)oxy]phenyl}carbamate] | 0.09 | < 0.01 | –
COc1cc2nccc(Oc3cc(C)c(NC(=O)OCC4CCCCCC4)cc3C)c2cc1OC [Example 349, Cycloheptylmethyl N-{4-[(6,7-dimethoxy-4-quinolyl)oxy]-2,5-dimethylphenyl}carbamate] | 0.309 | 0.012 | –
COc1cc2nccc(Oc3ccc(NC(=O)OCC4CCCCCC4)c(C)c3C)c2cc1OC [Example 350, Cycloheptylmethyl N-{4-[(6,7-dimethoxy-4-quinolyl)oxy]-2,3-dimethylphenyl}carbamate] | 0.238 | < 0.01 | –
COc1cc2ncnc(Oc3ccc(NC(=O)OCC4CCCCCC4)cc3)c2cc1OC [Example 351, Cycloheptylmethyl N-{4-[(6,7-dimethoxy-4-quinazolinyl)oxy]phenyl}carbamate] | 0.064 | < 0.01 | –
COc1cc2ncnc(Oc3ccc(NC(=O)OCC4CCCCCC4)c(Cl)c3)c2cc1OC [Example 352, Cycloheptylmethyl N-{2-chloro-4-[(6,7-dimethoxy-4-quinazolinyl)oxy]phenyl}carbamate] | 0.195 | < 0.01 | –
COc1cc2nccc(Oc3cc(C)c(NC(=O)OCCC4CCCCC4)cc3C)c2cc1OC [Example 354, 2-Cyclohexylethyl N-{4-[(6,7-dimethoxy-4-quinolyl)oxy]-2,5-dimethylphenyl}carbamate] | 0.384 | 0.015 | –
COc1cc2nccc(Oc3ccc(NC(=O)OCCC4CCCCC4)c(C)c3C)c2cc1OC [Example 355, 2-Cyclohexylethyl N-{4-[(6,7-dimethoxy-4-quinolyl)oxy]-2,3-dimethylphenyl}carbamate] | 0.252 | 0.024 | –
COc1cc2ncnc(Oc3ccc(NC(=O)OCCC4CCCCC4)cc3)c2cc1OC [Example 356, 2-Cyclohexylethyl N-{4-[(6,7-dimethoxy-4-quinazolinyl)oxy]phenyl}carbamate] | 0.066 | < 0.01 | –
COc1cc2ncnc(Oc3ccc(NC(=O)OCCC4CCCCC4)c(Cl)c3)c2cc1OC [Example 357, 2-Cyclohexylethyl N-{2-chloro-4-[(6,7-dimethoxy-4-quinazolinyl)oxy]phenyl}carbamate] | 0.116 | < 0.01 | –
CCC(CC)OC(=O)Nc1ccc(Oc2ccnc3cc(OC)c(OC)cc23)cc1 [Example 358, 1-Ethylpropyl N-{4-[(6,7-dimethoxy-4-quinolyl)oxy]phenyl}carbamate] | 0.366 | < 0.01 | –
CCC(CC)OC(=O)Nc1cc(C)c(Oc2ccnc3cc(OC)c(OC)cc23)cc1C [Example 359, 1-Ethylpropyl N-{4-[(6,7-dimethoxy-4-quinolyl)oxy]-2,5-dimethylphenyl}carbamate] | 0.274 | 0.028 | –
CCC(CC)OC(=O)Nc1ccc(Oc2ccnc3cc(OC)c(OC)cc23)c(C)c1C [Example 360, 1-Ethylpropyl N-{4-[(6,7-dimethoxy-4-quinolyl)oxy]-2,3-dimethylphenyl}carbamate] | 0.189 | 0.016 | –
COc1cc2nccc(Oc3ccc(NC(=O)OC4CCCC4)cc3)c2cc1OC [Example 363, Cyclopentyl N-{4-[(6,7-dimethoxy-4-quinolyl)oxy]phenyl}carbamate] | 0.072 | < 0.01 | –
COc1cc2nccc(Oc3cc(C)c(NC(=O)OC4CCCC4)cc3C)c2cc1OC [Example 364, Cyclopentyl N-{4-[(6,7-dimethoxy-4-quinolyl)oxy]-2,5-dimethylphenyl}carbamate] | 0.098 | 0.029 | –
COc1cc2nccc(Oc3ccc(NC(=O)OC4CCCC4)c(C)c3C)c2cc1OC [Example 365, Cyclopentyl N-{4-[(6,7-dimethoxy-4-quinolyl)oxy]-2,3-dimethylphenyl}carbamate] | 0.047 | < 0.01 | –
COc1cc2ncnc(Oc3ccc(NC(=O)OC4CCCC4)cc3)c2cc1OC [Example 366, Cyclopentyl N-{4-[(6,7-dimethoxy-4-quinazolinyl)oxy]phenyl}carbamate] | 0.066 | 0.027 | –
CCCCC(CCCC)OC(=O)Nc1ccc(Oc2ccnc3cc(OC)c(OC)cc23)cc1 [Example 368, 1-Butylpentyl N-{4-[(6,7-dimethoxy-4-quinolyl)oxy]phenyl}carbamate] | 0.426 | 0.064 | –

The next lines start with the values.

IC50 (c-kit) [µM] | IC50 (PDGF-Ra) [µM] | inhibition at 1 µM (c-kit) [%] | Compound
0.107 | < 0.01 | – | COc1cc2ncnc(Oc3ccc(NC(=O)OCC4CCCCC4)cc3)c2cc1OC [Example 340, Cyclohexylmethyl N-{4-[(6,7-dimethoxy-4-quinazolinyl)oxy]phenyl}carbamate]
0.519 | 0.032 | – | COc1cc2ncnc(Oc3ccc(NC(=O)OCC4CCCCC4)c(Cl)c3)c2cc1OC [Example 341, Cyclohexylmethyl N-{2-chloro-4-[(6,7-dimethoxy-4-quinazolinyl)oxy]phenyl}carbamate]
< 0.03 | < 0.01 | – | CCCCOC(=O)Nc1ccc(Oc2ncnc3cc(OC)c(OC)cc23)cc1 [Example 344, Butyl N-{4-[(6,7-dimethoxy-4-quinazolinyl)oxy]phenyl}carbamate]
– | 0.041 | 37 | CCC(OC(=O)Nc1ccc(Oc2ncnc3cc(OC)c(OC)cc23)cc1Cl)c1ccccc1 (centres unmarked) [Example 346, 1-Phenylpropyl N-{2-chloro-4-[(6,7-dimethoxy-4-quinazolinyl)oxy]phenyl}carbamate]
0.228 | 0.077 | – | COc1cc2nccc(Oc3cc(C)c(NC(=O)OC(C)C)cc3C)c2cc1OC [Example 347, Isopropyl N-{4-[(6,7-dimethoxy-4-quinolyl)oxy]-2,5-dimethylphenyl}carbamate]
0.278 | < 0.01 | – | CCC(CC)OC(=O)Nc1ccc(Oc2ncnc3cc(OC)c(OC)cc23)cc1 [Example 361, 1-Ethylpropyl N-{4-[(6,7-dimethoxy-4-quinazolinyl)oxy]phenyl}carbamate]
– | 0.042 | 26 | CCC(CC)OC(=O)Nc1ccc(Oc2ncnc3cc(OC)c(OC)cc23)cc1Cl [Example 362, 1-Ethylpropyl N-{2-chloro-4-[(6,7-dimethoxy-4-quinazolinyl)oxy]phenyl}carbamate]
0.207 | 0.055 | – | COc1cc2ncnc(Oc3ccc(NC(=O)OC4CCCC4)c(Cl)c3)c2cc1OC [Example 367, Cyclopentyl N-{2-chloro-4-[(6,7-dimethoxy-4-quinazolinyl)oxy]phenyl}carbamate]
– | > 0.1 | 36 | CCCCC(CCCC)OC(=O)Nc1cc(C)c(Oc2ccnc3cc(OC)c(OC)cc23)cc1C [Example 369, 1-Butylpentyl N-{4-[(6,7-dimethoxy-4-quinolyl)oxy]-2,5-dimethylphenyl}carbamate]
